We go through two molecules from publication PMC7534258, “Novel temporin L antimicrobial peptides: promoting self-assembling by lipidic tags to tackle superbugs” (Journal of Enzyme Inhibition and Medicinal Chemistry, 2020).

Where a SMILES comes first, the peptide text is derived from it. [ ]: non-standard residue; d: D form. The star is where a group is joined. Phe(4-NH2) = Nc1ccc(C[C@H](N)C(=O)O)cc1; Pentanoyl = CCCCC(=O)*

A short description of one test: ANTS/DPX leakage assay. The following applies: ANTS/DPX-loaded LUVs, Gram-positive and Gram-negative mimicking. The protocol: Large unilamellar vesicles (LUVs) and small unilamellar vesicles (SUVs) consisting of DOPG/CL (58/42 ratio in moles) and DOPG/DOPE/CL (63/23/12 ratio in moles), mimic the Gram-positive membrane and Gram-negative membrane, respectively. LUVs were prepared using the extrusion method as previously described. In particular, first lipid films were prepared by dissolving an appropriate amount of lipids in chloroform and fluorescent probes were added when necessary, then dried under a nitrogen gas stream and freeze-dried overnight. In all experiments, we used a final lipid concentration of 0.1 mM. For fluorescence experiments, buffer was added to dry lipid films and vortexed for 1 h; then the lipid suspension was freeze-thawed 6 times and extruded 10 times through polycarbonate membranes with 0.1 µm diameter pores to obtain LUVs. For circular dichroism measurements, peptide samples in SUVs were prepared as reported in the following protocol. Lipids were dissolved in chloroform and added to an equal volume of peptide solution dissolved in TFE containing appropriate peptide concentration. The samples were vortexed and lyophilised overnight. The dry samples were rehydrated with phosphate buffer 5 mM, pH 7.4 for 1 h and sonicated for 30 min.
The ANTS/DPX leakage assay was used to measure the ability of peptide to permeabilise and induce leakage of encapsulated dyes. After lipid films were prepared as previously described, ANTS (12.5 mM) and DPX (45 mM) were dissolved in 2 ml water, were added to lipid films and then lyophilised overnight. The lipid films with encapsulated ANTS and DPX were hydrated with PBS 1X buffer, vortexed for 1 h and then treated to obtain LUVs. The non-encapsulated ANTS and DPX were removed by gel filtration using a Sephadex G-50 column (1.5 cm × 10 cm) at room temperature. To start up the leakage experiment, a 2 mM peptide stock solution was prepared and LUVs were titrated with the peptide. Samples were excited at 385 nm (slit width, 5 nm) and fluorescence emission was recorded at 512 nm (slit width, 5 nm). After the addition of peptide, we evaluated leakage of encapsulated ANTS through a change in fluorescence spectra of ANTS and DPX. In particular, leakage is associated to an increase in ANTS fluorescence at 512 nm. Complete release of ANTS was obtained by using 0.1% Triton X, which caused the total destruction of liposomes. The percentage of leakage was calculated as % leakage =(Fi−F0)/(Ft−F0), where F0 represents the fluorescence of intact LUVs before the addition of peptide, and Fi and Ft denote the intensities of the fluorescence achieved after peptide and Triton-X treatment, respectively.

Another test relates to P. aeruginosa ATCC 27853. Nature of the test: Broth microdilution MIC, reference strain. In kind it is cell-based, Pseudomonas aeruginosa. The protocol:
(§1) Staphylococcus aureus ATCC 25923, Pseudomonas aeruginosa ATCC 27853 and Klebsiella pneumoniae ATCC BAA-1705 (carbapenemase producer) were obtained from the American Type Culture Collection (Rockville, MD).
(§2) Identification was performed by sub-culturing on Tryptic Soy Agar (TSA, Becton Dickinson) and by biochemical characterisation using the Vitek II system (Biomerieux). The antimicrobial susceptibility testing of all isolates was determined using Vitek II system and results were interpreted according to European Committee on Antimicrobial Susceptibility Testing (EUCAST version 9.0, 2019). P. aeruginosa was cultured in Brain Heart Infusion broth (BHI, OXOID), S. aureus and K. pneumoniae were cultured in Tryptic Soya broth (TSB, OXOID), under aerobic conditions at 37 °C, for 24 h on an orbital shaker at 200 rpm.
(§3) Minimal inhibitory concentrations (MIC) of all the peptides were determined in Mueller–Hinton medium by the broth microdilution assay, following the procedure already described[22]^,[34]. The compounds were added to bacterial suspension in each well yielding a final cell concentration of 1 × 10^6 CFU/ml and a final compound concentration ranging from 0.78 to 100 µM. Negative control wells were set to contain bacteria in Mueller–Hinton broth plus the amount of vehicle (ethanol) used to dilute each compound. Positive controls included vancomycin (2 µg/ml), tobramycin (4 µg/ml), gentamycin (4 µg/ml), and imipenem (8 µg/ml).
A general note: Broth dilution looks for growth in wells or tubes with falling amounts of substance.

In the next test the test system is KpCR1. Nature of the test: microbe, parasite or virus in culture. The following applies: carbapenem-resistant clinical isolate. The protocol:
(§4) Clinical strains of P. aeruginosa (Pa1, Pa2 and Pa3), K. pneumoniae (KpCR1, KpCR2 and KpCR3), and S. aureus (Sa1, Sa2 and Sa3) were isolated from bloodstream or pulmonary infections, and belong to a collection of bacterial strains established between 2010 and 2018 at the Department of Molecular Medicine and Medical Biotechnologies (University Federico II, Naples) for research use.
as §2, §3

The subject of the next test is KpCR3. Description: microbe, parasite or virus in culture. The following applies: carbapenem-resistant clinical isolate. The protocol: as §4, §2, §3
In another test the test system is Sa2. Description: microbe, parasite or virus in culture. The protocol: as §4, §2, §3
In another test the test system is Sa3. Description: microbe, parasite or virus in culture. The following applies: 24 h. The protocol:
as §4, §2, §3

The subject of the next test is Pa3. Nature of the test: microbe, parasite or virus in culture. The following applies: multidrug resistant clinical isolate. The protocol: as §4, §2, §3
A further test deals with Sa1. Description: microbe, parasite or virus in culture. The protocol:
as §4, §2, §3

The test system of the next test is Pa2. Nature of the test: microbe, parasite or virus in culture. The following applies: multidrug resistant clinical isolate. The protocol:
as §4, §2, §3

The test system of a further test is Pa1. Description: microbe, parasite or virus in culture. The following applies: multidrug resistant clinical isolate. The protocol: as §4, §2, §3
Another test deals with KpCR2. Nature of the test: microbe, parasite or virus in culture. The following applies: carbapenem-resistant clinical isolate. The protocol: as §4, §2, §3
Test [1] has as its system K. pneumoniae ATCC BAA-1705. Nature of the test: Broth microdilution MIC, reference strain. The test is classed as cell-based, Klebsiella pneumoniae. The protocol:
as §1, §2, §3

The mark [2] stands for this setting: 100% growth inhibition after 16–18 h at 37 °C.

In the case of `CCCCC(=O)Nc1ccc(C[C@H](N)C(=O)N[C@H](C(=O)N2CCC[C@H]2C(=O)N[C@@H](Cc2c[nH]c3ccccc23)C(=O)N[C@@H](Cc2ccccc2)C(=O)N[C@@H](CO)C(=O)N[C@@H](CCCCN)C(=O)N[C@@H](Cc2ccccc2)C(=O)N[C@H](CC(C)C)C(=O)N[C@H](CCCCN)C(=O)N[C@@H](CCCNC(=N)N)C(=O)N[C@H](C(=O)N[C@@H](CC(C)C)C(N)=O)[C@@H](C)CC)C(C)C)cc1` [C, H-Phe(4-NHCO(CH2)3CH3)-Val-Pro-Trp-Phe-Ser-Lys-Phe-DLeu-DLys-Arg-Ile- Leu-NH2] (H-[Phe(4-NH2)](Pentanoyl)VPWFSKF[dL][dK]RIL-NH2), the “membrane leakage ability (in words)” value in “ANTS/DPX leakage assay” is “intermediate ability to produce leakage”. Further, the “Antimicrobial activity (MIC) P. aeruginosa ATCC 27853” value in the test on P. aeruginosa ATCC 27853 (ATCC 27853) amounted to 25 µM. Also, the “Antimicrobial activity (MIC) KpCR1” value in the test with KpCR1 was 12.5 µM. For the same molecule, the “Antimicrobial activity (MIC) KpCR3” value with KpCR3 is 12.5 µM. The “Antimicrobial activity (MIC) Sa2” value with Sa2 (24 h) was found to be 12.5 µM. The “Antimicrobial activity (MIC) Sa3” value in the test on Sa3 was 12.5 µM. For the same molecule, the “Antimicrobial activity (MIC) Pa3” value in the test on Pa3 is recorded as 25 µM. In the test on Sa1 (24 h), the “Antimicrobial activity (MIC) Sa1” value came out at 12.5 µM. Besides, the “Antimicrobial activity (MIC) Pa2” value in the test on Pa2 is reported as 25 µM. In addition, the “Antimicrobial activity (MIC) Pa1” value in the test with Pa1 is recorded as 25 µM. For the same molecule, in the test with KpCR2, the “Antimicrobial activity (MIC) KpCR2” value stood at 12.5 µM. For the same molecule, the “Antimicrobial activity (MIC) K. pneumoniae ATCC BAA-1705” value in test [1] (ATCC BAA-1705) is recorded as 6.25 µM.

Turning to `CC[C@H](C)[C@H](NC(=O)[C@H](CCCNC(=N)N)NC(=O)[C@@H](CCCCN)NC(=O)[C@@H](CC(C)C)NC(=O)[C@H](Cc1ccccc1)NC(=O)[C@H](CCCCN)NC(=O)[C@H](CO)NC(=O)[C@H](Cc1ccccc1)NC(=O)[C@H](Cc1c[nH]c2ccccc12)NC(=O)[C@@H]1CCCN1C(=O)[C@@H](NC(=O)[C@@H](N)Cc1ccccc1)C(C)C)C(=O)N[C@@H](CC(C)C)C(N)=O` [Compound 1B, H-Phe-Val-Pro-Trp-Phe-Ser-Lys-Phe-DLeu-DLys-Arg-Ile-Leu-NH2] (H-FVPWFSKF[dL][dK]RIL-NH2), the “membrane leakage ability (in words)” value in the test “ANTS/DPX leakage assay” is “lowest leakage ability”. Besides, the “Antimicrobial activity (MIC) P. aeruginosa ATCC 27853” value with P. aeruginosa ATCC 27853 (setting [2]) was determined as 12.5 µM. In addition, the “Antimicrobial activity (MIC) KpCR1” value in the test with KpCR1 is on record as 12.5 µM. Moreover, the “Antimicrobial activity (MIC) KpCR3” value with KpCR3 was 12.5 µM. In the test on Sa2 (MRSA clinical isolate), the “Antimicrobial activity (MIC) Sa2” value is listed as 12.5 µM. Besides, the “Antimicrobial activity (MIC) Sa3” value in the test with Sa3 turned out to be 6.25 µM. Besides, the “Antimicrobial activity (MIC) Pa3” value with Pa3 was determined as 12.5 µM. Besides, the “Antimicrobial activity (MIC) Sa1” value in the test on Sa1 (MRSA clinical isolate) was 12.5 µM. For the same molecule, in the test with Pa2, the “Antimicrobial activity (MIC) Pa2” value came to 12.5 µM. The “Antimicrobial activity (MIC) Pa1” value in the test with Pa1 is given as 12.5 µM. In addition, in the test on KpCR2, the “Antimicrobial activity (MIC) KpCR2” value was found to be 12.5 µM. For the same molecule, the “Antimicrobial activity (MIC) K. pneumoniae ATCC BAA-1705” value in test [1] (setting [2]) is recorded as 12.5 µM.
